{"source": "patent US20050164234A1", "about": "“Methods of using mammalian RNase H and compositions thereof” (priority 1997, published 2005)", "key": {"human RNase H1": {"system": "human RNase H1", "test": "Screen of antisense compounds (gapped oligonucleotides, siRNA) in cells against human RNase H1", "format": "cell-based", "design": "concentration or dose not given beside the values", "details": "percent inhibition of RNase H enzyme levels; target H1", "procedure": "(§1) Oligonucleotides were identified by screening in cells (Crooke, S. T., 2003, in Burger's Medicinal Chemistry, 6th ed., pp 115-166; Vickers et al., 2003, J. Biol. Chem. 278, 7108-7118).\n(§2) For this experiment oligoribonucleotides were purchased from Dharmacon Research, Inc. (Boulder Colo.). siRNA duplexes were formed in the solution containing 20 μM each oligoribonucleotide (sense strand shown and antisense strand complement—generally with a one base overhang at each end), 100 mM potassium acetate, 30 mM HEPES-KOH pH 7.4, 2 mM magnesium acetates. Reactions were heated for 1 minute at 90° C. and incubated for 1 hour at 37° C. The control gapped antisense oligonucleotide, is ISIS 29848, […] (SEQ ID NO: 104), where N is a mixture of A, G, C and T. Bold residues are 2′-MOE residues. The siRNA controls are either the single strand sense RNA strand or other RNA duplexes that are not complementary to the target. For transfection of cells, cells were incubated with a mixture of 3 μg/ml lipofectin (Invitrogen, Carlsbad Calif.) per 1-200 nM oligonucleotide or siRNA in OptiMEM medium (Invitrogen). After 4 hours the transfection mixture was aspirated from the cells and replaced with fresh medium containing 10% fetal bovine serum and the cells were incubated at 37° C. in 5% CO2 until harvest or second transfection."}, "[1]": {"system": "17 nucleotide long RNA/DNA heteroduplex", "test": "Initial cleavage rates of RNA/DNA heteroduplex by wild-type and mutant human RNase H1 proteins", "format": "biochemical", "details": "0.5 ng enzyme, 37° C., average of n≧3; detection limit = <1% of heteroduplex substrate cleaved over 60 min", "from_the_text": "The oligoribonucleotides were synthesized on a PE-ABI 380B synthesizer using 5′-O-silyl-2′-O-bis(2-acetoxyethoxy)methyl ribonucleoside phosphoramidites and procedures described elsewhere. Scaringe et al., 1998, J. Am. Chem. Soc. 120, 11820-11821/The oligoribonucleotides were purified by reverse-phase HPLC. The DNA oligonucleotides were synthesized on a PE-ABI 380B automated DNA synthesizer and standard phosphoramidite chemistry. The DNA oligonucleotides were purified by precipitation 2 times out of 0.5 M NaCl with 2.5 volumes of ethyl alcohol.\nThe RNA substrate is 5′-end-labeled with ^32P using 20 u of T4 polynucleotide kinase (Promega, Wis.), 120 pmol (7000 Ci/mmol) [γ-^32P]ATP (ICN, CA), 40 pmol RNA, 70 mM tris, pH 7.6, 10 mM MgCl2 and 50 mM DTT. The kinase reaction is incubated at 37° C. for 30 min. The labeled oligoribonucleotide was purified by electrophoresis on a 12% denaturing polyacrylamide gel. The specific activity of the labeled oligonucleotide is approximately 3000 to 8000 cpm/fmol.\nThe heteroduplex substrate was prepared in 100 μL containing 50 nM unlabeled oligoribonucleotide, 10^5 cpm of ^32P labeled oligoribonucleotide, 100 nM complementary oligodeoxynucleotide and hybridization buffer [20 mM tris, pH 7.5, 20 mM KCl]. Reactions were heated at 90° C. for 5 min, cooled to 37° C. and 60 u of Prime RNase Inhibitor (5 Prime→3 Prime, CO) and MgCl2 at a final concentration of 1 mM were added. Hybridization reactions were incubated 2-16 h at 37° C. and β-mercaptoethanol (BME) was added at final concentration of 20 mM.\nThe heteroduplex substrate was digested with 0.5 ng human RNase H1 at 37° C. A 10 μl aliquot of the cleavage reaction was removed at time points ranging from 2-120 min and quenched by adding 5 μL of stop solution (8 M urea and 120 mM EDTA). The aliquots were heated at 90° C. for two min, resolved in a 12% denaturing polyacrylamide gel and the substrate and product bands were quantitated on a Molecular Dynamics PhosphorImager. The concentration of the converted product was plotted as a function of time. The initial cleavage rate was obtained from the slope (mole RNA cleaved/min) of the best-fit line for the linear portion of the plot, which comprises, in general <10% of the total reaction and data from at least five time points.\nThe initial cleavage rates (V0) were determined for the human RNase H1 enzyme and the mutant proteins using a 17 nucleotide long RNA/DNA heteroduplex, (Table 5).\nInitial cleavage rates were determined as described in above. The initial cleavage rates are an average of n≧3 measurements. *Detection limit=cleavage rates resulting in <1% of the heteroduplex substrate over 60 min."}, "human RNase H2 [2]": {"system": "human RNase H2", "test": "Antisense inhibition of human RNase H2 expression, Northern blot", "format": "cell-based", "design": "% of control / % inhibition: concentration or dose not given beside the values", "details": "for % inhibition / % of control: RNase H2 expression, Northern blot; for reduction of expression: dose response, A549 cells", "procedure": "Total RNA was isolated from different human cell lines (ATCC, Rockville, Md.) using the guanidine isothiocyanate method (21). Ten μg of total RNA was separated on a 1.2% agarose/formaldehyde gel and transferred to Hybond-N+ (Amersham, Arlington Heights, Ill.) followed by fixing using UV crosslinker (Strategene, La Jolla, Calif.). The premade multiple tissue Northern Blot membranes were also purchased from Clontech (Palo Alto, Calif.). To detect RNase H2 mRNA, hybridization was performed by using ^32P-labeled human RNase H II cDNA in Quik-Hyb buffer (Strategene, La Jolla, Calif.) at 68 EC for 2 hours. After hybridization, membranes were washed in a final stringency of 0.1×SSC/0.1% SDS at 60 EC for 30 minutes and subjected to auto-radiography.\nA series of antisense oligonucleotides were targeted to the human RNase H2 polynucleotide sequence (SEQ ID NO: 11). These compounds were all 2′-O-methoxyethyl “gapmers” with an 8-nucleotide deoxy gap and a phosphorothioate backbone. Cytosine residues are 5-methyl cytosines. The 2′-O-methoxyethyl (2′MOE) nucleotides are shown in bold.\nThe oligonucleotides shown in Table 2 were tested by Northern blot analysis for their ability to inhibit expression of human RNase H2. Results are expressed in Table 3."}, "human RNase H2 [3]": {"system": "human RNase H2", "test": "Screen of antisense compounds (gapped oligonucleotides, siRNA) in cells against human RNase H2", "format": "cell-based", "design": "concentration or dose not given beside the values", "details": "percent inhibition of RNase H enzyme levels; target H2", "procedure": "as §1, §2"}}, "note": "Strand notation (5' to 3'): a small letter for the sugar, then the base; units joined by * are phosphorothioate-linked, units joined directly phosphodiester-linked; [ ] holds rarer units or linkages, { } end groups; capitals alone tell only the bases. e = 2'-O-(2-methoxyethyl) (MOE); [5mC] = 5-methylcytosine; d = 2'-deoxy (DNA)"}
{"molecule": "GCGCTTAACACCGCACTTCC (chemistry not fully specified) [ISIS 18173, DNA-like gapped 2′-MOE oligonucleotide against human RNase H1, 5′UTR]", "values": [{"measurement": "% Inhib", "setting": "human RNase H1", "value": 30.1, "unit": "%"}]}
{"molecule": "CCTCATCCTCTGTGGCAAAC (chemistry not fully specified) [ISIS 18177, DNA-like gapped 2′-MOE oligonucleotide against human RNase H1, coding]", "values": [{"measurement": "% Inhib", "setting": "human RNase H1", "value": 71.9, "unit": "%"}]}
{"molecule": "AAGCCGAGCGUGGAGCCGGCG [Si-H1B]", "values": [{"measurement": "% Inhib", "setting": "human RNase H1", "value": 77.2, "unit": "%"}]}
{"molecule": "CGCCCAGGAAGTCTAATGCC (chemistry not fully specified) [ISIS 18180, DNA-like gapped 2′-MOE oligonucleotide against human RNase H1, coding]", "values": [{"measurement": "% Inhib", "setting": "human RNase H1", "value": 73.9, "unit": "%"}]}
{"molecule": "TGCAGGCTATTTTCCACACC (2'-MOE gapmer, further chemistry not given here) [ISIS 18186, DNA-like gapped 2′-MOE oligonucleotide against human RNase H1, 3′UTR]", "values": [{"measurement": "% Inhib", "setting": "human RNase H1", "value": 86.8, "unit": "%"}]}
{"molecule": "RNase H1[E186Q]: human RNase H1 mutant, glutamine substitution of glutamic acid at position 186", "values": [{"measurement": "V0", "setting": "[1]", "value": "below detection limit"}]}
{"molecule": "CCTCCGATTCTTGTCCATGT (chemistry not fully specified) [ISIS 18178, DNA-like gapped 2′-MOE oligonucleotide against human RNase H1, coding]", "values": [{"measurement": "% Inhib", "setting": "human RNase H1", "value": 64.6, "unit": "%"}]}
{"molecule": "CATCGCTCACTCCCGGCACC (chemistry not fully specified) [ISIS 18174, DNA-like gapped 2′-MOE oligonucleotide against human RNase H1, start codon]", "values": [{"measurement": "% Inhib", "setting": "human RNase H1", "value": 51.4, "unit": "%"}]}
{"molecule": "CAAAAGGAAGTAGCTGGACC (antisense e[5mC]*eA*eA*eA*eA*eG*dG*dA*dA*dG*dT*dA*dG*d[5mC]*eT*eG*eG*eA*e[5mC]*e[5mC]) [ISIS 21962, 2′-O-methoxyethyl gapmer, 8-nucleotide deoxy gap, phosphorothioate backbone, targeted to human RNase H2]", "values": [{"measurement": "% inhibition", "setting": "human RNase H2 [2]", "value": 37, "unit": "%"}, {"measurement": "% of control", "setting": "human RNase H2 [2]", "value": 63, "unit": "%"}, {"measurement": "% Inhib", "setting": "human RNase H2 [3]", "value": 36.0, "unit": "%"}]}
{"molecule": "TCTTCCAACCTTGAACCCAG (chemistry not fully specified) [ISIS 18182, DNA-like gapped 2′-MOE oligonucleotide against human RNase H1, coding]", "values": [{"measurement": "% Inhib", "setting": "human RNase H1", "value": 42.8, "unit": "%"}]}
{"molecule": "CCTACGTGTGGTTCTCCTTA (antisense e[5mC]*e[5mC]*eT*eA*e[5mC]*eG*dT*dG*dT*dG*dG*dT*dT*d[5mC]*eT*e[5mC]*e[5mC]*eT*eT*eA) [ISIS 21960, 2′-O-methoxyethyl gapmer, 8-nucleotide deoxy gap, phosphorothioate backbone, targeted to human RNase H2]", "values": [{"measurement": "% inhibition", "setting": "human RNase H2 [2]", "value": 92, "unit": "%"}, {"measurement": "% of control", "setting": "human RNase H2 [2]", "value": 8, "unit": "%"}, {"measurement": "reduction of expression", "setting": "human RNase H2 [2]; 200 nM", "value": "> 80", "unit": "%"}, {"measurement": "reduction of expression", "setting": "human RNase H2 [2]; lowest dose tested 50 nM", "value": 60, "unit": "%"}, {"measurement": "inhibition of human RNase H2 expression", "setting": "human RNase H2 [2]; summary of Table 3", "value": "at least 50%"}, {"measurement": "% Inhib", "setting": "human RNase H2 [3]", "value": 91.7, "unit": "%"}]}
{"molecule": "TGGCTCAAGTTCTCCCAAGG (chemistry not fully specified) [ISIS 18184, DNA-like gapped 2′-MOE oligonucleotide against human RNase H1, 3′UTR]", "values": [{"measurement": "% Inhib", "setting": "human RNase H1", "value": 78.9, "unit": "%"}]}
{"molecule": "RNase H1[D210N]: human RNase H1 mutant, asparagine substitution of aspartic acid at position 210 (protein, UniProt O60930 1-286, looked up, variant D210N) Ribonuclease H1: MSWLLFLAHRVALAALPCRRGSRGFGMFYAVRRGRKTGVFLTWNECRAQVDRFPAARFKKFATEDEAWAFVRKSASPEVSEGHENQHGQESEAKASKRLREPLDGDGHESAEPYAKHMKPSVEPAPPVSRDTFSYMGDFVVVYTDGCCSSNGRRRPRAGIGVYWGPGHPLNVGIRLPGRQTNQRAEIHAACKAIEQAKTQNINKLVLYTNSMFTINGITNWVQGWKKNGWKTSAGKEVINKEDFVALERLTQGMDIQWMHVPGHSGFIGNEEADRLAREGAKQSED", "values": [{"measurement": "V0", "setting": "[1]", "value": "below detection limit"}]}
{"molecule": "RNase H1[K226, 227A]: human RNase H1 mutant, alanine substitution of lysine at positions 226 and 227 (protein, UniProt O60930 1-286, looked up, variant K226A K227A) Ribonuclease H1: MSWLLFLAHRVALAALPCRRGSRGFGMFYAVRRGRKTGVFLTWNECRAQVDRFPAARFKKFATEDEAWAFVRKSASPEVSEGHENQHGQESEAKASKRLREPLDGDGHESAEPYAKHMKPSVEPAPPVSRDTFSYMGDFVVVYTDGCCSSNGRRRPRAGIGVYWGPGHPLNVGIRLPGRQTNQRAEIHAACKAIEQAKTQNINKLVLYTDSMFTINGITNWVQGWAANGWKTSAGKEVINKEDFVALERLTQGMDIQWMHVPGHSGFIGNEEADRLAREGAKQSED", "values": [{"measurement": "V0", "setting": "[1]", "value": "8.1 ± 0.2", "unit": "pM/min"}]}
